Key:
CaMKii [1] = experiment: Western blot of phospho-CaMKii in rescued Rasless MEFs; assay type: cell-based, mouse
Description: (§1) Experimental cells were washed twice in ice-cold PBS and lysed in 1% Triton lysis buffer [25 mmol/L Tris pH 7.5, 150 mmol/L NaCl, 1% Triton X-100, 1 mmol/L EDTA, 1 mmol/L EGTA, 20 mmol/L NaF, 1 mmol/L […], and 1 mmol/L DTT] supplemented with a protease inhibitor cocktail (Roche) and cleared by centrifugation. Protein concentrations were determined by the Bio-Rad Protein Assay (Bio-Rad). Equal amounts of protein extracts were resolved using SDS-PAGE (NuPAGE; Invitrogen), transferred to a nitrocellulose membrane, and immunoblotted with primary antibodies indicated, followed by secondary antibodies labeled with either IRDye800 (Rockland) or Alexa Fluor 680 (Molecular Probes) and were visualized using a LI-COR Odyssey scanner. A complete list of primary antibodies is provided in the Extended Experimental Procedures.

PANC1 or PANC2.13 = experiment: Established subcutaneous human pancreatic xenograft tumors; assay type: in vivo, mouse
Description: (§2) The drug was daily administrated into either NOD-SCID or athymic nude mice by oral gavages (OG) at 1 mg/kg or intraperitoneal (I.P) injection at 0.5 mg/kg. 10% DMSO, 10% cremophor, and 80% saline solutions were used as the solvent and vehicle control.

[2] = test system: Ras^V12-transformed NIH/3T3 cells; experiment: Tumor initiation of Ras^V12-transformed NIH/3T3 cells in nude mice; assay type: in vivo, mouse
Description: All experiments were approved by the IACUC of the University of California, San Francisco. Ras^V12-transformed NIH/3T3 cells were subcutaneously injected in female nude mice (Nu/Nu) at 50, 100 or 1,000 cells per flank. Palpable tumors were measured twice a week. The animals were divided into five mice per group. Pancreatic adenocarcinoma cells derived from Braf^CA and Kras^LSL-G12D mice are provided by Eric Collisson, and genotyped as described (Collison et al., Nat Med 17:500-503, 2011; Dankort et al., Genes Dev 21:379-384, 2007; Hingorani et al., Cancer Cell 4:[…], 2003). One hundred cells were orthotopically implanted in 6- to 8-week-old FVB/n mice in 20 μL 50% Matrigel using a 28.5-gauge needle. Mice were monitored for one month and were euthanized when distressed.
as §2

CaMKii [3] = experiment: Western blot of phospho-CaMKii in Ras-transformed NIH/3T3 cells (and human pancreatic cancer cell lines); assay type: cell-based, mouse
Description: as §1

[4] = test system: Ras^V12-transformed NIH/3T3 cells; experiment: Drug sensitization assay (MTS cell viability), Ras-transformed NIH/3T3; assay type: cell-based, mouse
Description: (§3) The dead cells were removed, and MTS assay (Promega, G5430) was performed for determining the percentage of viable cells, according to the manufacturer's instructions. DMSO was used as vehicle control and for normalization.

[5] = test system: K-Ras^G12V-induced papillomas; experiment: K-Ras^G12V-induced papilloma in LRIG1cre/ER/LSL-Ras^G12V GEMM; assay type: in vivo, mouse
Text: (§4) We first used a papilloma model driven by H- or K-Ras^G12V under the control of a skin stem cell promoter, Lrig1 (FIG. 7C) (Jaks et al., Exp Cell Res 316:1422-1428, 2010; Page et al., Cell Stem Cell 13, 471-482, 2013). In this GEMM, tamoxifen inducible Cre recombinase initiates the expression of oncogenic H- or K-Ras^G12V, and the enforced oncogenic Ras expression disrupts the skin hemeostasis during wound healing and further induces papilloma formations (FIG. 7C).
(§5) Lrig1 Cre/ER/LSL Hras and Lrig1 Cre/ER/LSL-Kras^G12D mice have been backcrossed into the FVB/N background over multiple generations to minimize the effects of genetic heterogeneity on tumor development. Cre recombinase was activated in both groups of mice by administering a single dose of 4oht (Tamoxifen), topically applied at 8 weeks of age. On day 7 thereafter, wounding was induced on their backs by cutting a 2 cm incision for papilloma development.

[6] = test system: H-Ras^G12V-induced tumors; experiment: H-Ras^G12V-induced papilloma in LRIG1cre/ER/LSL-Ras^G12V GEMM; assay type: in vivo, mouse; details: daily treatment (FIG. 7D)
Text: as §4, §5

Rasless MEFs = experiment: Cell viability of rescued Rasless MEFs; assay type: cell-based, mouse
Description: as §3

LEF1 = LEF1 mRNA expression in PANC1 and PANC2.13 (qPCR); assay type: cell-based; details: human pancreatic cancer cells (FIG. 13B)
Description: (§6) Total RNAs were isolated and purified using QIAGEN RNAeasy kit. 1 μg RNA per specimen was reverse transcribed into cDNA using SuperScript™ First-Strand Synthesis System for RT-PCR (Invitrogen). Possible contamination of genomic DNA was excluded by treatments of DNase I. Quantitative real-time PCR array analysis was performed using SYBR Green (Applied Biosystem). Fold differences and statistical analysis were calculated using the GraphPad Prism 4.00 for Windows (GraphPad Software). The mouse Stem Cell Signaling RT^2Profiler PCR array on 96-well plate (PAMM-047Z) was purchased from SABiosciences.

Fzd8 = Fzd8 mRNA expression in PANC1 and PANC2.13 (qPCR); assay type: cell-based; details: human pancreatic cancer cells (FIG. 13B)
Description: as §6

PANC1 and PANC2.13 = experiment: Prevention of subcutaneous human pancreatic xenograft tumors in nude mice; assay type: in vivo, mouse
Description: as §2

[7] = PKC activators, literature; cited from earlier work
[8] = Rasless MEFs rescued with H-Ras^V12 (FIG. 13C)
[9] = Rasless MEFs rescued with K-Ras(4B)^V12 (FIG. 13C)
[10] = subcutaneous PANC2.13 (FIG. 6D)

SMILES: CC(=O)O[C@@]12C[C@@H](C)[C@@]3(O)C(C=C(CO)C[C@]4(O)C(=O)C(C)=C[C@@H]34)[C@@H]1C2(C)C (some centres unmarked) [prostratin, 12-deoxyphorbol-13-acetate]
- phospho-CaMKii response (CaMKii [1]; [8]): minimal responses
- phospho-CaMKii (CaMKii [1]; [9]): increased phospho-CaMKii
- expression of cleaved caspase 3 in subcutaneous tumors (PANC1 or PANC2.13; FIG. 14D): enhanced expression of cleaved caspase 3
- growth rate of established subcutaneous tumors (PANC1 or PANC2.13; daily oral treatment from 10 to 14 days post-injection, vs vehicle (FIG. 7A)): significantly reduced growth rate
- tumorigenicity of K-Ras^V12-transformed cells ([2]; administered orally or intra-peritoneally, nude mice (FIG. 13D)): dramatically suppressed the tumorigenicity
- size of subcutaneous tumor derived from K-Ras^V12-NIH/3T3 cells ([2]; vs vehicle control (FIG. 13D-E)): much smaller
- phosphor-CaMKii in tumor derived from K-Ras^V12-NIH/3T3 cells ([2]; vs vehicle control (FIG. 13E)): greatly increased phosphor-CaMKii
- activation of CaMKii (CaMKii [3]; NIH/3T3 cells transformed by K-Ras^V12-S181A mutant or H-Ras^V12 (legend FIG. 5I)): not K-Ras^V12-S181A mutant or H-Ras^V12
- levels of phospho-CaMKii (CaMKii [3]; Ras^V12-transformed cells and human pancreatic cancer cell lines (FIG. 5H-I)): dramatically elevated levels of phospho-CaMKii
- activity of CaMKii (CaMKii [3]; cells transformed by H-Ras^V12 or K-Ras^V12-S181D (FIG. 5I)): did not alter the activity of CaMKii
- sensitivity to prostratin (cell viability) ([4]; H-Ras^V12 or K-Ras^V12-S181D-transformed NIH/3T3 cells (FIG. 5J)): but not H-Ras^V12 or K-Ras^V12-S181D, -transformed NIH/3T3 cells, were sensitive to prostratin
- cell viability ([4]; K-Ras^V12-transformed NIH/3T3 cells (FIG. 5J)): dramatically reduced cell viability
- EMT markers (E-cadherin, vimentin) in K-Ras^G12V-driven skin tumors ([5]; FIG. 7E): maintained strong expression of epithelial maker
- growth rate of K-Ras^G12V-induced papillomas ([5]; FIG. 14E): significantly slowed down the growth rate
- formation of papillomas driven by K-Ras^G12V ([5]; daily treatment (FIG. 7D)): significantly delayed/reduced the formation of papillomas
- initiation of H-Ras^G12V-induced tumors [6]: no effects
- cell viability response (Rasless MEFs; [8]): minimal responses
- cell viability (Rasless MEFs; [9]): decreased cell viability
- expression of β-catenin targeted gene LEF1 (LEF1): reduced the expressions of β-catenin targeted gene, LEF1
- expression of Fzd8 (Fzd8): increased expression of Fzd8
- tumor initiation and tumor size by bioluminescence imaging (BLI) (PANC1 and PANC2.13; subcutaneous PANC2.13 (FIG. 6C)): profoundly suppressed tumor initiation and tumor size
- expression of Ki67 (PANC1 and PANC2.13; [10]): reduced expression of Ki67
- tumor growth rate during therapy (PANC1 and PANC2.13; [10]): dramatically reduced tumor growth rate
- average size of established tumors (PANC1 and PANC2.13; subcutaneous PANC2.13, vs control group (FIG. 6B)): much smaller
- frequency of tumor formation (PANC1 and PANC2.13; subcutaneous xenograft, oral prostratin from one day before implantation, vs vehicle (FIG. 6A)): significantly reduced the frequency of tumor formation
- tumor promotion [7]: far less potent for tumor promotion

Reference: patent US10201516B2 (The Regents of the University of California, priority 2014, dated 2019)
